Assay results taken from patent publication US12692269B2, “Therapeutic compounds” (Genentech, Inc., priority 2019, dated 2026).
pEC50: −log10 of the molar value.

Experiments:
Type in all cases: binding
TEAD1 YAP50-100 = TEAD1 YAP50-100 (Homo sapiens, UniProt P28347); test: TEAD1-YAP HTRF (TR-FRET) protein-protein interaction assay; settings: TEAD1, YAP peptide 50-100, HTRF; for pEC50: read-out: TEAD1 YAP50-100 HTRF combined: EC50
Method in brief: (§1)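 Compounds were given 30 min to bind Eu anti-His-labelled TEAD (His-tagged, aa 217-447) before streptavidin-XL665-coupled biotin-YAP 50-100 or biotin-TAZ 13-57 peptide went in for a further 60 min at room temperature. Loss of 665/615 nm TR-FRET ratio gave IC50/EC50 via four-parameter curve fit.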

TEAD2 YAP50-100 = TEAD2 YAP50-100 (Homo sapiens, UniProt Q15562); test: TEAD2-YAP HTRF (TR-FRET) protein-protein interaction assay; settings: TEAD2, YAP peptide 50-100, HTRF; for pEC50: read-out: TEAD2 YAP50-100 HTRF combined: EC50
Method in brief: as §1

TEAD3 YAP50-100 = TEAD3 YAP50-100 (Homo sapiens, UniProt Q99594); test: TEAD3-YAP HTRF (TR-FRET) protein-protein interaction assay; settings: TEAD3, YAP peptide 50-100, HTRF; for pEC50: read-out: TEAD3 YAP50-100 HTRF combined: EC50
Method in brief: as §1

TEAD4 YAP50-100 = TEAD4 YAP50-100 (Homo sapiens, UniProt Q15561); test: TEAD4-YAP HTRF (TR-FRET) protein-protein interaction assay; settings: TEAD4, YAP peptide 50-100, HTRF; for pEC50: read-out: TEAD4 YAP50-100 HTRF combined: EC50
Method in brief: as §1

[1] = target: TEAD1 TAZ (amino acids 13-57) (Homo sapiens, UniProt P28347); test: TEAD1-TAZ HTRF (TR-FRET) protein-protein interaction assay; settings: for TEAD1 TAZ HTRF combined: Max % Inhibition: TEAD1, TAZ peptide; for pEC50: TEAD1-TAZ HTRF, TR-FRET 665 nm/615 nm, read-out: TEAD1 TAZ HTRF combined: EC50
Method in brief: as §1

[2] = target: TEAD2 TAZ (amino acids 13-57) (Homo sapiens, UniProt Q15562); test: TEAD2-TAZ HTRF (TR-FRET) protein-protein interaction assay; settings: for TEAD2 TAZ HTRF combined: Max % Inhibition: TEAD2, TAZ peptide; for pEC50: TEAD2-TAZ HTRF, TR-FRET 665 nm/615 nm, read-out: TEAD2 TAZ HTRF combined: EC50
Method in brief: as §1

[3] = target: TEAD3 TAZ (amino acids 13-57) (Homo sapiens, UniProt Q99594); test: TEAD3-TAZ HTRF (TR-FRET) protein-protein interaction assay; settings: for TEAD3 TAZ HTRF combined: Max % Inhibition: TEAD3, TAZ peptide; for pEC50: TEAD3-TAZ HTRF, TR-FRET 665 nm/615 nm, read-out: TEAD3 TAZ HTRF combined: EC50
Method in brief: as §1

[4] = target: TEAD4 TAZ (amino acids 13-57) (Homo sapiens, UniProt Q15561); test: TEAD4-TAZ HTRF (TR-FRET) protein-protein interaction assay; settings: for TEAD4 TAZ HTRF combined: Max % Inhibition: TEAD4, TAZ peptide; for pEC50: TEAD4-TAZ HTRF, TR-FRET 665 nm/615 nm, read-out: TEAD4 TAZ HTRF combined: EC50
Method in brief: as §1

TEAD3 TAZ (amino acids 13-57), sequence (Q99594 173-435 limits assumed): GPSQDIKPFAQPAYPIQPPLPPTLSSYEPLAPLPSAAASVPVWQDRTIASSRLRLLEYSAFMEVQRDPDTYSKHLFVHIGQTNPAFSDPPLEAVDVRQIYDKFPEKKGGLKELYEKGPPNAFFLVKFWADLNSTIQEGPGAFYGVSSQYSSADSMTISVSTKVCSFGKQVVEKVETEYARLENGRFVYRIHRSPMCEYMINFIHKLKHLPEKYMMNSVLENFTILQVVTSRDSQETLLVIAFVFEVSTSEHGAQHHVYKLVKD
TEAD3 YAP50-100, sequence (Q99594 173-435 limits assumed): as above
TEAD4 YAP50-100, sequence (Q15561 217-434 limits assumed): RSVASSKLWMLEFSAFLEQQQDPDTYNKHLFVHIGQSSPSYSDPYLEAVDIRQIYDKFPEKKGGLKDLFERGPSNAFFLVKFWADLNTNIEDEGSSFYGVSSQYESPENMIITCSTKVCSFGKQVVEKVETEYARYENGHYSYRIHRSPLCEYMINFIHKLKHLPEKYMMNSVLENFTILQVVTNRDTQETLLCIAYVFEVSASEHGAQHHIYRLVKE
TEAD4 TAZ (amino acids 13-57), sequence (Q15561 217-434 limits assumed): as above
TEAD2 YAP50-100, sequence (Q15562 217-447): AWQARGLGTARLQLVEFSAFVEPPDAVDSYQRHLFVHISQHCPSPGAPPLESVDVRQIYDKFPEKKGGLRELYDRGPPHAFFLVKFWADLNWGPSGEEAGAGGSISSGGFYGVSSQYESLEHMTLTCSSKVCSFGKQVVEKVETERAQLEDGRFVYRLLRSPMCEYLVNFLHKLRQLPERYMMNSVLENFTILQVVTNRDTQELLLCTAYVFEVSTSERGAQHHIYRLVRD
TEAD2 TAZ (amino acids 13-57), sequence (Q15562 217-447): as above
TEAD1 TAZ (amino acids 13-57), sequence (P28347 167-426 limits assumed): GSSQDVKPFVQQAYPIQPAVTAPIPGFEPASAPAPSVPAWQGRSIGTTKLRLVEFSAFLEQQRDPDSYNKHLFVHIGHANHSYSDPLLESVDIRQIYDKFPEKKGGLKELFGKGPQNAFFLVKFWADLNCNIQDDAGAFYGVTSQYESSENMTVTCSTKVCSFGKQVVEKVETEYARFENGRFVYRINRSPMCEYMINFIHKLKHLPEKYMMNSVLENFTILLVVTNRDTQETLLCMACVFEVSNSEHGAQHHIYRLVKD
TEAD1 YAP50-100, sequence (P28347 167-426 limits assumed): as above

| TEAD1 YAP50-100 HTRF combined: Max % Inhibition (TEAD1 YAP50-100) [%] | pEC50 (TEAD1 YAP50-100) | TEAD2 YAP50-100 HTRF combined: Max % Inhibition (TEAD2 YAP50-100) [%] | pEC50 (TEAD2 YAP50-100) | TEAD3 YAP50-100 HTRF combined: Max % Inhibition (TEAD3 YAP50-100) [%] | pEC50 (TEAD3 YAP50-100) | TEAD4 YAP50-100 HTRF combined: Max % Inhibition (TEAD4 YAP50-100) [%] | pEC50 (TEAD4 YAP50-100) | TEAD1 TAZ HTRF combined: Max % Inhibition [1] [%] | pEC50 [1] | TEAD2 TAZ HTRF combined: Max % Inhibition [2] [%] | pEC50 [2] | TEAD3 TAZ HTRF combined: Max % Inhibition [3] [%] | pEC50 [3] | TEAD4 TAZ HTRF combined: Max % Inhibition [4] [%] | pEC50 [4] | SMILES |
| --- | --- | --- | --- | --- | --- | --- | --- | --- | --- | --- | --- | --- | --- | --- | --- | --- |
| 69.0 | 7.40 | 67.5 | 8.00 | 60.0 | 7.22 | 46.0 | 7.22 | 59.5 | 7.15 | 63.5 | 8.00 | 53.0 | 7.22 | 38.5 | 7.30 | O=C(c1c(-c2ncco2)nn2c(=O)cc(-c3ccc(C4CCCCC4)cc3)[nH]c12)N1CC(CF)C1 [Compound 19, 5-(4-Cyclohexylphenyl)-3-(3-(fluoromethyl)azetidine-1-carbonyl)-2-(oxazol-2-yl)pyrazolo[1,5-a]pyrimidin-7(4H)-one] |
| 66.0 | 6.37 | 83.5 | 7.10 | 71.0 | 6.08 | 59.5 | 5.55 | 60.5 | 6.44 | 77.0 | 7.15 | 68.0 | 6.03 | 53.0 | 5.68 | Cc1nccnc1-c1nn2c(=O)cc(-c3ccc(OC(c4ccccc4)C(F)(F)F)cc3)[nH]c2c1C(=O)N1C[C@H](CF)[C@@H]1C (single isomer, unassigned) [Final product obtained using Enantiomer B from Step 1, Example 56] |
| 69.0 | 7.52 | 70.0 | 8.00 | 61.5 | 7.30 | 50.5 | 7.70 | 59.5 | 7.40 | 67.5 | 8.00 | 56.0 | 7.30 | 52.0 | 7.70 | C[C@H]1[C@@H](CF)CN1C(=O)c1c(-c2cnccn2)nn2c(=O)cc(-c3ccc(CC4CCCC4)cc3)[nH]c12 (single isomer, unassigned) [Isomer B, Example 44, Cis-5-(4-(cyclopentylmethyl)phenyl)-3-(3-(fluoromethyl)-2-methylazetidine-1-carbonyl)-2-(pyrazin-2-yl)pyrazolo[1,5-a]pyrimidin-7(4H)-one] |
| 74.0 | 7.15 | 63.5 | 7.70 | 68.5 | 6.92 | 48.0 | 5.98 | 69.0 | 7.15 | 63.0 | 7.70 | 61.0 | 6.92 | 48.5 | 6.07 | O=C(c1c(-c2nccc(C(F)(F)F)n2)nn2c(=O)cc(-c3ccc(C4CCCCC4)cc3)[nH]c12)N1CC(CF)C1 [Compound 11, 5-(4-Cyclohexylphenyl)-3-(3-(fluoromethyl)azetidine-1-carbonyl)-2-(4-(trifluoromethyl)pyrimidin-2-yl)pyrazolo[1,5-a]pyrimidin-7(4H)-one] |
